Assay in all cases: NCI tumour cell line growth inhibition, 48 h
In test [1] the test system is EKVX NSCLC.
Test [2] has as its system HCT-116 colon.
Test [3] concerns LOX IMVI melanoma.
The subject of test [4] is NCI-H226 lung.
The subject of test [5] is NCI-H460 lung.
The subject of test [6] is SK-MEL-5 melanoma.
Test [7] deals with SK-OV-3 ovarian.
Test [8] relates to SR leukemia.

Molecules are shown by their SMILES.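 A five-concentration, 48-hour dose response in 96-well plates underlies each endpoint, interpolated linearly between surrounding concentrations. GI50 = concentration required for 50% inhibition of growth. Definition used: TGI = concentration required for complete inhibition of growth.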

As to `Cc1cc(=O)n(-c2ccccc2)c(=O)o1`, the TGI in test [1], in test [2], in test [3], in test [4], in test [5] and in test [6] was above 100 µM throughout. The TGI in test [7] and in test [8] was above 100 µM in each case.
For the molecule `COC(=O)[C@H]1[C@H]2C[C@@H]3c4[nH]c5cc(OC)ccc5c4CCN3C[C@H]2C[C@@H](OC(=O)c2cc(OC)c(OC)c(OC)c2)[C@@H]1OC`, the TGI in test [2] was found to be 31.5 µM; in test [4] it was 66.7 µM; in test [5] it was 59.9 µM; in test [6], 54.3 µM; in test [8] it was 34 µM.
Take `O=C(c1ccccc1)C(c1ccccc1)C1(O)C(=O)Nc2ccccc21` (centres undefined): the TGI in test [1], in test [2], in test [3], in test [4], in test [5] and in test [6] was above 100 µM in each case. In addition, the TGI in test [7] was above 100 µM.
`[N-]=[N+]=Nc1ccc(CCN2CCN(c3cccc(C(F)(F)F)c3)CC2)cc1I`: the TGI in test [1], in test [2], in test [3], in test [4], in test [5] and in test [6] was above 100 µM throughout. For the same molecule, the TGI in test [7] and in test [8] was above 100 µM throughout.
As for `CC1(C)C(c2ccccc2)C12CCC1(C2=O)C(c2ccccc2)C1(C)C` (centres undefined), the TGI in test [1] was 69.3 µM; in test [2], 33.6 µM; in test [3] it was 42.7 µM; in test [4], 36.3 µM; in test [6] it was 37.9 µM.
On to `CN1C(OCc2ccccc2)c2c(ccc3c2OCO3)C2C=Cc3cc4c(cc3C21)OCO4` (centres undefined), for which the TGI turned out to be 2.98 µM in test [1]; 1.44 µM in test [2]; 0.337 µM in test [3]; 2.8 µM in test [4]; 3.09 µM in test [5]; 2.58 µM in test [6]. In test [7], the TGI is 2.46 µM.
Consider `C[C@@H](C1CCC2C3C(=CC(=O)[C@@]21C)[C@H](C)[C@]1(CCC(=O)O1)C1OC31)[C@H]1C[C@]2(C)O[C@@](C)(O1)OC2(C)C` (some centres undefined), for which the TGI in test [1], in test [2], in test [3], in test [5], in test [6] and in test [7] was above 100 µM each time.
Turning to `CCCN(CCCN)/[N+]([O-])=N\O`, the TGI is 0.921 µM in test [1]; above 100 µM in test [2]; above 100 µM in test [4]; above 100 µM in test [5]; above 100 µM in test [6]; above 100 µM in test [7]. Also, the TGI in test [8] was above 100 µM.
Consider `COc1c(C2=NC(C(C)C)CO2)ccc2ccccc12` (centres undefined), for which the TGI was above 100 µM in test [1]; above 100 µM in test [3]; above 100 µM in test [4]; above 100 µM in test [5]; 36.3 µM in test [6]; above 100 µM in test [7].
In the case of `O=C1c2ccccc2C(=O)C2C1C1C(=O)c3ccccc3C(=O)C21` (centres undefined), the TGI in test [1], in test [3], in test [5], in test [6] and in test [7] was above 100 µM in each case.
As to `N=CCCN(CCC=N)c1ccc(/C=C2\CN(NC(=O)c3ccc(Cl)cc3)C(c3ccccc3)=N2)cc1`, the TGI in test [1], in test [2], in test [3], in test [4], in test [5] and in test [6] was above 100 µM each time. Moreover, in test [7], the TGI was above 100 µM.
Consider `COc1cc(=O)oc(/C=C/C=O)c1C`, for which the TGI was 94.6 µM in test [1]; 17.4 µM in test [2]; 16.6 µM in test [3]; 90.9 µM in test [4]; 38.4 µM in test [6]; 75.9 µM in test [7]. The molecule also showed a TGI in test [8] of 7.6 µM.
Turning to `Nc1ncnc2c1ncn2C1OC(CSC(F)(F)F)C(O)C1O` (centres undefined), the TGI in test [1], in test [2], in test [3], in test [4], in test [5] and in test [6] was above 100 µM each time. Besides, the TGI in test [7] was above 100 µM.
As for `CCCCSN1C(=O)c2ccccc2C1=S`, the TGI in test [1], in test [2], in test [3], in test [5], in test [6] and in test [7] was above 100 µM in each case.
Regarding `Cc1ccc(NC(=O)CC/C(CC(=O)C(C)(C)C)=N/NC(=O)C(N)=O)cc1C`, the TGI in test [1], in test [2], in test [4], in test [5], in test [6] and in test [7] was above 100 µM each time. The TGI in test [8] was above 100 µM.
For the molecule `N#CCCN(CCC#N)C(=O)c1cccc(C(=O)N(CCC#N)CCC#N)c1`, the TGI is above 63.9 µM in test [1]; 99.4 µM in test [2]; 30.3 µM in test [3]; above 64.8 µM in test [5]; above 100 µM in test [6]; above 100 µM in test [7]. This molecule also gave a TGI in test [8] above 68.4 µM.
Consider `N#CNC(N)=NCCO`, for which the TGI in test [1], in test [2], in test [4], in test [5], in test [6] and in test [7] was above 100 µM each time. Further, the TGI in test [8] is 86.2 µM.
For `CC(=O)[CH-]C(=O)c1ccccc1.CC(=O)[CH-]C(=O)c1ccccc1.COc1cccc([O-])c1[O-].[Ti+4]`, the GI50 in test [2] was 32.1 µM; in test [3] it was 25 µM; in test [4] it was 15.9 µM; in test [5], 52 µM; in test [6], 93.3 µM; in test [7], 53.9 µM. Moreover, the TGI was above 100 µM in test [2]; above 100 µM in test [3]; 73 µM in test [4]; above 100 µM in test [5]; above 100 µM in test [6]; above 100 µM in test [7].
Turning to `[C-]#[O+].[Cl][Sn]([Cl])[Cl].[Cl][Sn]([Cl])[Cl].[Pt].c1ccc([PH+](c2ccccc2)c2ccccc2)cc1.c1ccc([PH+](c2ccccc2)c2ccccc2)cc1`, the GI50 is 28 µM in test [1]; 43.2 µM in test [2]; 14.2 µM in test [3]; 33.8 µM in test [5]; 31.5 µM in test [6]; 48.2 µM in test [7]. For the same molecule, in test [8], the GI50 was 37.7 µM. Further, the TGI in test [1] is above 100 µM; in test [2], above 100 µM; in test [3] it was 41 µM; in test [5] it was above 100 µM; in test [6] it was above 100 µM; in test [7], above 100 µM. The same molecule had a TGI in test [8] above 100 µM.
On to `CN(C)c1ccc2c(c1)CN1C(=O)c3ccccc3C1=N2`, for which the GI50 in test [2], in test [3], in test [4], in test [5], in test [6] and in test [7] was above 100 µM throughout. In test [8], the GI50 is above 100 µM. The TGI in test [2], in test [3], in test [4], in test [5], in test [6] and in test [7] was above 100 µM throughout. The TGI in test [8] was above 100 µM.
`Cc1nc2ccccc2c(=O)n1/N=C(\N=Nc1cc(Cl)ccc1Cl)c1cccc(-c2ccco2)c1`: the TGI in test [1], in test [2], in test [3], in test [4], in test [5] and in test [6] was above 100 µM in each case. Further, the TGI in test [7] was above 100 µM.
Regarding `CC1(C)CCC[C@@]2(C)C1C[C@H](O)[C@@]1(C)O[C@@](C)([C@H](O)CO)CCC21` (some centres undefined), the TGI in test [1] is above 100 µM; in test [2] it was above 100 µM; in test [4], above 100 µM; in test [5] it was above 100 µM; in test [6], 44 µM; in test [7] it was 79.4 µM.
For the molecule `Cc1ccc(C2CC(c3ccc([N+](=O)[O-])cc3)=Nc3ccccc3S2)cc1` (centres undefined), the TGI in test [1] was above 100 µM; in test [3], 34.6 µM; in test [4], above 100 µM; in test [5] it was above 100 µM; in test [6] it was 38 µM; in test [7] it was above 100 µM.
As to `O=S1CSCS1` (centres undefined), the TGI in test [1], in test [2], in test [3], in test [4], in test [6] and in test [7] was above 100 µM in each case. Also, in test [8], the TGI was above 100 µM.
Take `CC1(C)C(c2ccccc2)=NN(O)c2ccccc21`: the TGI in test [1], in test [2], in test [4], in test [5], in test [6] and in test [7] was above 100 µM each time.

The values above are taken from PubChem BioAssay (NCI).
